According to patent publication US8759261B2, “Method and composition for enhanced hydrocarbons recovery” (Shell Oil Company, priority 2008, dated 2014):

Assay: Solvent addition to improve aqueous solubility of IOS blend in seawater brine
Format: physicochemical
Method: The first attempt to improve the aqueous solubility of these blends was to use small amounts of solvents added to an IOS blend and seawater brine. One percent solvent was added to 3.2% brine solutions (see Table 1 for brine composition) containing a 0.2% blend of 78% IOS 2024 and 22% IOS 2428. This particular surfactant blend had been identified for minimizing the oil-water interfacial tension between the crude oil and brine representative of a North Sea reservoir. Additions of 1% hexylene glycol, 1-hexanol, polyethylene glycol (mw=400) and sodium xylene sulfonate were studied.
A small amount of alcohol ethoxylate (8% relative to the IOS) was added to a second sample of sodium xylene sulfonate.

For polyethylene glycol (mw=400), which “solubilizing of the solid in the IOS blend” value is on record?
The value was “solubilizing most but not all of the solid”.

Which “remaining precipitate after addition of nonionic” value (second sample with 1% sodium xylene sulfonate plus alcohol ethoxylate (8% relative to the IOS), 3.2% brine, 0.2% IOS blend) does the source give for sodium xylene sulfonate here?
Its value is “eliminated the rest of the precipitate”.
